SMILES strings stand for the structures. ≈ marks a conversion by molar mass, not a printed value. Counter-ions that a name gives are not always drawn. Like-named read-outs stand apart in the source and are kept apart here.

In assay [1] the test system is Staphylococcus aureus 2999i^+p^+. In words: Antibiotic activity in vitro, agar dilution method (MIC). The assay is classed as cell-based. To be noted: DST agar. For orientation: Agar dilution tests growth on a series of plates holding different concentrations.
The test system of assay [2] is Streptococcus pyogenes Aronson. Described as above. The assay is classed as cell-based. The following applies: DST agar.
For assay [3], the system named is Escherichia coli 205. The description is as above. It is filed as cell-based. To be noted: DST agar.
Assay [4] deals with Klebsiella pneumoniae 327. The assay is described as above. It is filed as cell-based. To be noted: DST agar.
For assay [5], the system named is Serratia marcescens 344. The description is as above. It is filed as cell-based. The following applies: DST agar.
The subject of assay [6] is Proteus mirabilis 774. Described as above. It is filed as cell-based. The following applies: DST agar.
Assay [7] deals with Proteus rettgeri 856. Described as above. To be noted: Providencia rettgeri, DST agar. The assay is classed as cell-based.
Assay [8] deals with Pseudomonas aeruginosa ATCC 12055. The assay is described as above. It is filed as cell-based. The following applies: ATCC12055, DST agar.
In assay [9] the test system is Clostridium perfringens 194. In words: microbe, parasite or virus in culture. The assay is classed as cell-based.
Assay [10] deals with Bacteroides fragilis LO 1. As to the kind of experiment: Antibiotic activity in vitro, agar dilution method (MIC). The assay is classed as cell-based. To be noted: LO1, DST agar.
Assay [11] relates to Neisseria meningitidis 1316. The description is as above. It is filed as cell-based. The following applies: DST agar.
The subject of assay [12] is Haemophilus influenzae NCTC 4560. The assay is described as above. To be noted: DST agar. It is filed as cell-based.
The test system of assay [13] is Escherichia coli 205. In words: Chemotherapeutic activity in vivo against systemic infection in mice (ED50). To be noted: s.c., systemic infection in female SPF MF2 mice. An excerpt: (§1) B. Die chemotherapeutische Wirksamkeit in vivo gegen systemische Infektionen in weiblichen SPF, MF2 Mäusen wurde nach der Methode von Zak., 0., et al., 1979, Drugs Exptl. Clin. Res. 5, 45-59, ermittelt. Die gefundenen ED50-Werte in Milligramm Substanz pro Kilogramm Maus (mg/kg) für eine Anzahl von Mikroorganismen werden für die subcutan (s.c.) applizierten Testverbindungen in der Tabelle 2 angegeben.

Assay [14] concerns Staphylococcus aureus 10B. The assay is described as above. To be noted: systemic infection in female SPF MF2 mice.
Description: as §1

The test system of assay [15] is Proteus morganii 2359. The description is as above. The following applies: Morganella morganii, sc, systemic infection in female SPF MF2 mice.
Description: as §1

Setting [16] is: Staphylococcus aureus, read-out: MIC.
The mark [17] stands for this setting: Escherichia coli, 205, agar dilution, read-out: MIC.
Where [18] appears, read: Klebsiella pneumoniae, 327, agar dilution, read-out: MIC.
[19] abbreviates: Proteus mirabilis, 774, agar dilution, read-out: MIC.
[20] abbreviates: Haemophilus influenzae, NCTC4560, agar dilution, read-out: MIC.
Where [21] appears, read: Serratia marcescens, 344, agar dilution, read-out: MIC.
[22] abbreviates: Neisseria meningitidis, 1316, agar dilution, read-out: MIC.
Where [23] appears, read: Escherichia coli, 205, sc, read-out: ED50.
[24] abbreviates: Staphylococcus aureus, 10B, sc, read-out: ED50.

On to `CO/N=C(\C(=O)N[C@@H]1C(=O)N2C(C(=O)O)=C(COC(C)=O)CS[C@H]12)c1nc(N)n(C)n1` [Beispiel 2, 7β-[2-(5-Amino-1-methyl-1H-1,2,4-triazol-3-yl)-2-Z-methoxyimino-acetamino]-3-acetoxymethyl-3-cephem-4-carbonsäure-hydrochlorid], for which the MIC in assay [1] (setting [16]) came to 8 µg/mL; in assay [2], 0.5 µg/mL; in assay [3] (setting [17]) it was 0.1 µg/mL; in [4] (setting [18]), 0.1 µg/mL; in assay [5] (agar dilution), 1 µg/mL; in assay [6] (setting [19]), 0.05 µg/mL. Also, the MIC in assay [7] was 0.01 µg/mL; in assay [8], 128 µg/mL; in assay [9], 0.5 µg/mL; in assay [10], 8 µg/mL; in [11] (agar dilution) it was 0,02 µg/ml; in [12] (setting [20]), 1 µg/mL. Moreover, the ED50 – broadly, the dose at which the effect has come halfway, by size or by number of responders – is given as 1 mg/kg in [13] and 10 mg/kg in assay [14] (s.c.).
Take `CO/N=C(\C(=O)N[C@@H]1C(=O)N2C(C(=O)[O-])=C(C[n+]3ccc(C(N)=O)cc3)CS[C@H]12)c1nc(N)n(C)n1` [Testverbindung 4, 7β-[2-(5-Amino-1-methyl-1H-1,2,4-triazol-3-yl)-2-Z-methoxyimino-acetamino]-3-(4-carbamoylpyridiniomethyl)-3-cephem-4-carboxylat]: the MIC came out at 32 µg/mL (≈ 62.1 µM) in [1] (setting [16]); 32 µg/mL (≈ 62.1 µM) in assay [2]; 0.1 µg/mL (≈ 0.194 µM) in [3] (setting [17]); 0.1 µg/mL (≈ 0.194 µM) in [4] (setting [18]); 0.5 µg/mL (≈ 0.97 µM) in [5] (setting [21]); 0.1 µg/mL (≈ 0.194 µM) in assay [6] (setting [19]). The MIC in assay [7] is 0.02 µg/mL (≈ 0.0388 µM); in assay [9], 8 µg/mL (≈ 15.5 µM); in [10], 4 µg/mL (≈ 7.76 µM); in assay [11] (setting [22]), 0.5 µg/mL (≈ 0.97 µM); in [12] (setting [20]) it was 2 µg/mL (≈ 3.88 µM). For the same molecule, the ED50 in assay [13] (setting [23]) is 2.5 mg/kg.
As for `CC(=O)OCC1=C(C(=O)O)N2C(=O)[C@@H](NC(=O)Cc3nc(N)n(C)n3)[C@H]2SC1` [Testverbindung 1, 7β-[2-(5-Amino-1-methyl-1H-1,2,4-triazol-3-yl)-acetamino]-3-acetoxymethyl-3-cephem-4-carbonsäure], the MIC in assay [1] (setting [16]) amounted to 8 µg/mL (≈ 19.5 µM); in assay [2], 1 µg/mL (≈ 2.44 µM); in [3] (setting [17]) it was 32 µg/mL (≈ 78 µM); in [4] (setting [18]), 16 µg/mL (≈ 39 µM); in [6] (setting [19]), 128 µg/mL (≈ 312 µM); in [7] it was 32 µg/mL (≈ 78 µM). For the same molecule, the MIC in assay [9] worked out at 16 µg/mL (≈ 39 µM); in assay [11] (setting [22]) it was 2 µg/mL (≈ 4.87 µM); in [12] (setting [20]), 4 µg/mL (≈ 9.75 µM). Besides, the 50% effective dose (ED50) in assay [13] (setting [23]) and in assay [15] was over 30 mg/kg in each case.
For the molecule `CO/N=C(\C(=O)N[C@@H]1C(=O)N2C(C(=O)[O-])=C(C[n+]3ccc(C(N)=O)cc3)CS[C@H]12)c1nc(N=CN(C)C)n(C)n1` [Testverbindung 5], the MIC in assay [1] (setting [16]) was 8 µg/mL (≈ 14 µM); in assay [2], 0.5 µg/mL (≈ 0.876 µM); in [3] (setting [17]) it was 32 µg/mL (≈ 56.1 µM); in assay [4] (setting [18]), 32 µg/mL (≈ 56.1 µM); in assay [5] (setting [21]), 128 µg/mL (≈ 224 µM); in [6] (setting [19]), 32 µg/mL (≈ 56.1 µM). Besides, the MIC worked out at 8 µg/mL (≈ 14 µM) in [7]; 128 µg/mL (≈ 224 µM) in [8]; 2 µg/mL (≈ 3.51 µM) in assay [9]; 32 µg/mL (≈ 56.1 µM) in assay [10]; 8 µg/mL (≈ 14 µM) in [11] (setting [22]); 128 µg/mL (≈ 224 µM) in [12] (setting [20]). In addition, the ED50 in assay [13] (setting [23]) is over 30 mg/kg; in [15], 70 mg/kg; in [14] (setting [24]) it was 55 mg/kg.
Turning to `CO/N=C(\C(=O)N[C@@H]1C(=O)N2C(C(=O)O)=C(CSc3nnnn3C)CS[C@H]12)c1nc(N)n(C)n1` [Testverbindung 3, 7β-[2-(5-Amino-1-methyl-1H-1,2,4-triazol-3-yl)-2-Z-methoxyimino-acetamino]-3-(1-methyltetrazol-5-yl-thiomethyl)-3-cephem-4-carbonsäure], the MIC in assay [1] (setting [16]) was 8 µg/mL (≈ 15.7 µM); in assay [2] it was 1 µg/mL (≈ 1.96 µM); in assay [3] (setting [17]) it was 0.2 µg/mL (≈ 0.393 µM); in assay [4] (setting [18]) it was 0.2 µg/mL (≈ 0.393 µM); in assay [5] (setting [21]), 0.5 µg/mL (≈ 0.981 µM); in [6] (setting [19]), 0.2 µg/mL (≈ 0.393 µM). Moreover, the MIC in assay [7] came to 0.1 µg/mL (≈ 0.196 µM); in assay [8] it was 1 µg/mL (≈ 1.96 µM); in [9], 0.2 µg/mL (≈ 0.393 µM); in [10], 16 µg/mL (≈ 31.4 µM); in assay [11] (setting [22]), 0.5 µg/mL (≈ 0.981 µM); in [12] (setting [20]) it was 8 µg/mL (≈ 15.7 µM). Further, the ED50 in assay [13] (setting [23]) worked out at 1.7 mg/kg; in [15], 50 mg/kg; in [14] (setting [24]) it was 28 mg/kg.
Take `CO/N=C(\C(=O)N[C@@H]1C(=O)N2C(C(=O)O)=C(COC(C)=O)CS[C@H]12)c1nc(N)n(C)n1` [Testverbindung 2, 7ß-[2-(5-Amino-l-methyl-lH-l,2,4-triazol-3-yl)-2-Z-methoxy-imino-acetamino]-3-acetoxymethyl-3-cephem-4-carbonsäure]: the MIC in [1] (listed as 3) is 4 µg/mL (≈ 8.82 µM); in [3] (agar dilution, listed as 3) it was 0,05 µg/ml; in [4] (agar dilution, listed as 3), 0,05 µg/ml; in assay [5] (agar dilution, listed as 3), 0,1 µg/ml; in assay [6] (agar dilution, listed as 3) it was 0,1 µg/ml; in [11] (agar dilution, listed as 3), 0,1 µg/ml. The MIC in [12] (agar dilution, listed as 3) is given as 0,5 µg/ml. For the same molecule, the ED50 was 0,4 mg/kg in assay [13] (listed as 3); over 30 mg/kg in assay [15]; over 30 mg/kg in [14] (s.c., listed as 3).

The values are drawn from EP0070803A2, “Antibiotically active aminotriazolylcephalosporin derivatives and their preparation” (CIBA-GEIGY AG, priority 1981, dated 1983).
